Experimental data reported in ChEMBL document CHEMBL4270556, “Current progress on antioxidants incorporating the pyrazole core” (Eur J Med Chem, 2018).
pIC50: −log10 of the molar value.

Experiments:
[1] = Antioxidant activity assessed as inhibition of DPPH radical at 100 ug/ml relative to control; format: functional
[2] = Antioxidant activity assessed as ferric ion reducing activity after 20 mins in presence of potassium ferricyanide by FRAP assay relative to control; format: functional; parameters: scale not given: the % may be the effect or the level left
[3] = Antioxidant activity assessed as DPPH radical scavenging activity at 100 mM after 30 mins relative to control; format: functional
[4] = Antioxidant activity assessed as nitric oxide radical scavenging activity at 100 mM after 150 mins in presence of sodium nitroprusside relative to control; format: functional
[5] = Antioxidant activity assessed as inhibition of lipid peroxidation relative to control; format: functional; settings: dose or concentration not given here
[6] = Antioxidant activity assessed as DPPH radical scavenging activity after 20 mins by UV absorbance method relative to control; format: functional
[7] = Antioxidant activity assessed as DPPH radical scavenging activity at 10^-3 M relative to control; format: functional
[8] = Antioxidant activity assessed as DPPH radical scavenging activity at 10 ug/ml after 20 mins by UV absorbance method relative to control; format: functional
THP-1 = assay: Antioxidant activity in human THP1 cells assessed as inhibition of macrophage-mediated LDL oxidation after 24 hrs in presence of CuSO4 by TBARS assay; format: functional, cell-based; settings: THP-1, 24 h
[9] = Antioxidant activity assessed as DPPH radical scavenging activity at 30 to 50 ug/ml relative to control; format: functional
[10] = Antioxidant activity assessed as radical scavenging activity at 30 to 50 ug/ml relative to control; format: functional
[11] = Antioxidant activity assessed as DPPH radical scavenging activity at 80 ug/ml relative to control; format: functional
[12] = Antioxidant activity assessed as DPPH radical scavenging activity at 20 ug/ml relative to control; format: functional
[13] = Antioxidant activity assessed as hydroxyl radical scavenging activity; format: functional
[14] = Antioxidant activity assessed as inhibition of lipid peroxidation; format: functional
[15] = Antioxidant activity assessed as DPPH radical scavenging activity at 4 mM relative to control; format: functional

CCOC(=O)c1c(C)nn(-c2ccccc2)c1-c1ccc(N(C)C)cc1
inhibition [1]: 22.2 to 49.9%

O=C(/C=C/c1cn(-c2ccccc2)nc1-c1ccc(Br)cc1)c1cccc(NC(=O)c2ccc(F)cc2)c1
Activity [2]: 44.4 to 55.5% | Activity [3]: 36.8 to 42.3% | Activity [4]: 32.4 to 77.9%

Clc1ncnc2c1ncn2CC1CC(c2ccccc2)=NN1c1ccccc1 (stereo not given)
inhibition [5]: 94% | Activity [6]: 13 to 24%

NS(=O)(=O)c1ccc(N2N=C(c3ccco3)CC2c2cnn(-c3ccccc3)c2)cc1 (stereo not given)
Activity [7]: 23%

O=C(c1ccc(Cl)cc1)N1N=C(Cn2c3ccccc3c3nc4cc(Cc5ccc6nc(-c7ccccc7)c(-c7ccccc7)nc6c5)ccc4nc32)CC1c1ccc(Cl)cc1 (stereo not given)
Activity [8]: 58.3%

O=C(/C=C/c1cn(-c2ccccc2)nc1-c1cccc([N+](=O)[O-])c1)c1cccc(NC(=O)c2ccc(F)cc2)c1
Activity [3]: 33.3% | Activity [4]: 32.4 to 77.9%

CC(C)(Sc1cc(C(C)(C)C)c(O)c(C(C)(C)C)c1)Sc1cc(C(C)(C)C)c(O)c(C(C)(C)C)c1 [PROBUCOL]
pIC50 (THP-1): 6.22

COc1ccc(C2C(c3ccc(Cl)cc3)=NN(c3ccccc3)C2C#N)cc1 (stereo not given)
Activity [9]: < 60%

COc1ccc(C2=NN(c3ccccc3)[C@H]3C(=O)N(c4ccccc4)C(=O)[C@@H]23)cc1
Activity [10]: < 55%

CCOC(=O)c1c(C)nn(-c2ccc(C)cc2C)c1-c1ccc([N+](=O)[O-])cc1
inhibition [1]: 22.2 to 49.9%

O=C(Nc1ccccc1)NS(=O)(=O)c1ccc(N2N=C(c3ccco3)CC2c2cnn(-c3ccccc3)c2)cc1 (stereo not given)
Activity [7]: 25%

CCOC(=O)c1c(C)nn(-c2cccc(Cl)c2)c1-c1ccc(N(C)C)cc1
inhibition [1]: 22.2 to 49.9%

CCOC(=O)C1=C(N)Oc2c(c(C)nn2C(=O)c2ccncc2)C1c1c(-c2ccccc2)[nH]c2ccc(Cl)cc12 (stereo not given)
Activity [11]: 76.7%

Cc1ccc(N2N=C(c3ccccc3)CC2Cn2cnc3c(N4CCOCC4)ncnc32)cc1 (stereo not given)
inhibition [5]: 5.8% | Activity [6]: 43 to 44%

CCOC(=O)c1sc(Nc2ccccc2)c(-c2nc3c(cnn3-c3ccccc3)c(=O)[nH]2)c1N
Activity: 92%

Clc1ncnc2c1ncn2CC1CC(C2=NNC(Cn3cnc4c(Cl)ncnc43)C2)=NN1 (stereo not given)
Activity [6]: 62 to 79%

Cc1ccc(N2N=C(c3ccccc3)CC2Cn2cnc3c(N4CCCC4)ncnc32)cc1 (stereo not given)
inhibition [5]: 49% | Activity [6]: 43 to 44%

COc1ccc(C2CC(Cn3c4ccccc4c4nc5cc(Cc6ccc7nc(-c8ccccc8)c(-c8ccccc8)nc7c6)ccc5nc43)=NN2C(=O)c2ccc(Cl)cc2)cc1 (stereo not given)
Activity [8]: 59.4%

Cc1ccc(-n2nc(-c3ccccc3)cc2Cn2cnc3c(N4CCCCC4)ncnc32)cc1
Activity [6]: 62 to 79%

CCOC(=O)C1=C(N)Oc2c(c(C)nn2C(=O)c2ccncc2)C1c1c(-c2ccc(C)cc2)[nH]c2ccc(Cl)cc12 (stereo not given)
Activity [12]: 66.6 to 76.1%

CCOC(=O)c1c(C)nn(-c2ccc(C)cc2C)c1-c1ccc(N(C)C)cc1
inhibition [1]: 22.2 to 49.9%

COc1cc(C2=NN(c3ccccc3)[C@H]3C(=O)N(c4ccccc4)C(=O)[C@@H]23)cc(OC)c1OC
Activity [10]: < 55%

Oc1cc(O)c2c(c1)O[C@H](c1ccc(O)c(O)c1)[C@@H](O)C2 [CIANIDANOL]
IC50 [13]: 2930 µM | IC50 [14]: 1440 µM

O=C(Nc1ccc(Cl)cc1)NS(=O)(=O)c1ccc(N2N=C(c3ccco3)CC2c2cnn(-c3ccccc3)c2)cc1 (stereo not given)
Activity [7]: 16%

O=C(c1ccccc1)N1N=C(Cn2c3ccccc3c3nc4cc(Cc5ccc6nc(-c7ccccc7)c(-c7ccccc7)nc6c5)ccc4nc32)CC1c1ccc(F)cc1 (stereo not given)
Activity [8]: 45.5%

Cc1ccc(N2N=C(c3ccccc3)CC2Cn2cnc3c(N4CCCCC4)ncnc32)cc1 (stereo not given)
Activity [6]: 13 to 24%

c1ccc(C2=NN(c3ccccc3)C(Cn3cnc4c(N5CCOCC5)ncnc43)C2)cc1 (stereo not given)
inhibition [5]: 100% | Activity [6]: 13 to 24%

CCOC(=O)c1c(C)nn(-c2ccccc2)c1-c1ccc([N+](=O)[O-])cc1
inhibition [1]: 22.2 to 49.9%

Oc1c(Cl)cc(Cl)cc1C1Nc2ccccc2-c2cc(-c3ccccc3)nn21 (stereo not given)
Activity [15]: 99%

O=S(=O)(NC(=S)Nc1ccc(F)cc1)c1ccc(N2N=C(c3ccco3)CC2c2cnn(-c3ccccc3)c2)cc1 (stereo not given)
Activity [7]: 27%

CCOC(=O)c1c(C)nn(-c2cccc(Cl)c2)c1-c1cccc(Cl)c1
inhibition [1]: 22.2 to 49.9%

c1ccc(C2=NN(c3ccccc3)C(Cn3cnc4c(N5CCCCC5)ncnc43)C2)cc1 (stereo not given)
inhibition [5]: 72% | Activity [6]: 13 to 24%

COc1ccc(C2C(c3ccccc3)=NN(c3ccccc3)C2C#N)cc1 (stereo not given)
Activity [9]: < 45%

COc1ccc(C2=NN(c3ccccc3)[C@H]3C(=O)N(c4ccccc4)C(=O)[C@@H]23)cc1OC
Activity [10]: < 55%

CC(C)(C)OC(=O)N1CCN(c2ncnc3c2ncn3CC2CC(c3ccccc3)=NN2c2ccccc2)CC1 (stereo not given)
inhibition [5]: 54% | Activity [6]: 13 to 24%
